These results are taken from ChEMBL document CHEMBL3393053, “Synthesis and biological evaluation of isoindoloisoquinolinone, pyroloisoquinolinone and benzoquinazolinone derivatives as poly(ADP-ribose) polymerase-1 inhibitors” (Bioorg Med Chem, 2015).

Data set [1] can be described thus: Antioxidant activity against H2O2-induced oxidative stress in chicken RBC assessed as catalase activity by measuring H2O2 utilization per mg protein pre-incubated at 50 uM followed by H2O2 addition by UV spectroscopy (reference value: 15.97 +/- 2.12 nmol of H2O2 utilized/min/mg of protein). In kind it is functional, Gallus gallus, Erythrocyte.
Data set [2] relates to Erythrocyte. Nature of the data set: Cytoprotective activity against H2O2-induced genomic DNA damage in chicken RBC assessed as DNA level in comet tail region pre-incubated at 100 uM followed by H2O2 addition by single cell alkaline gel electrophoresis and fluorescent microscopy based comet assay (reference value: 45.78 +/- 3.24%). Format: functional, Gallus gallus.
Data set [3] in a line: Cytoprotective activity against H2O2-induced cytotoxicity in chicken RBC assessed as cell viability pre-incubated at 100 uM followed by H2O2 addition by acridine orange and ethidium bromide staining method (reference value: 41 +/- 2.08%). Format: functional. The conditions noted are these: Gallus gallus, Erythrocyte; read-out: Activity.
Data set [4] deals with Erythrocyte. Nature of the data set: Cytoprotective activity against H2O2-induced genomic DNA damage in chicken RBC assessed as DNA level in comet head region pre-incubated at 100 uM followed by H2O2 addition by single cell alkaline gel electrophoresis and fluorescent microscopy based comet assay (reference value: 52.23 +/- 3.98%). Format: functional, Gallus gallus.
A short description of data set [5]: Antioxidant activity against H2O2-induced oxidative stress in chicken RBC assessed as lipid peroxidation level by measuring malondialdehyde formation per mg protein pre-incubated at 75 uM followed by H2O2 addition by UV spectroscopy (reference value: 84.32 +/- 12.04 nmol malondialdehyde formed/mg protein). In kind it is functional, Gallus gallus, Erythrocyte.

Data set [6] is described as follows: Antioxidant activity against H2O2-induced oxidative stress in chicken RBC assessed as catalase activity by measuring H2O2 utilization per mg protein pre-incubated at 75 uM followed by H2O2 addition by UV spectroscopy (reference value: 15.97 +/- 2.12 nmol of H2O2 utilized/min/mg of protein). Format: functional, Gallus gallus, Erythrocyte.
A short description of data set [7]: Antioxidant activity against H2O2-induced oxidative stress in chicken RBC assessed as superoxide dismutase activity by measuring pyrogallol oxidization per mg protein pre-incubated at 25 uM followed by H2O2 addition by UV spectroscopy (reference value: 11.32 +/- 1.96 pyrogallol oxidized/min/mg of protein). In kind it is functional, Gallus gallus, Erythrocyte.

The nature of data set [8]: Toxicity against chicken RBC assessed as effect on cell viability at 25 to 100 uM by acridine orange and ethidium bromide staining method. In kind it is cell-based, Gallus gallus. The settings on record: erythrocyte.
The nature of data set [9]: Antioxidant activity against H2O2-induced oxidative stress in chicken RBC assessed as superoxide dismutase activity by measuring pyrogallol oxidization per mg protein pre-incubated at 100 uM followed by H2O2 addition by UV spectroscopy (reference value: 11.32 +/- 1.96 pyrogallol oxidized/min/mg of protein). In kind it is functional, Gallus gallus, Erythrocyte.
Data set [10] is described as follows: Antioxidant activity against H2O2-induced oxidative stress in chicken RBC assessed as superoxide dismutase activity by measuring pyrogallol oxidization per mg protein pre-incubated at 75 uM followed by H2O2 addition by UV spectroscopy (reference value: 11.32 +/- 1.96 pyrogallol oxidized/min/mg of protein). Format: functional, Gallus gallus, Erythrocyte.
Data set [11] can be described thus: Antioxidant activity against H2O2-induced oxidative stress in chicken RBC assessed as lipid peroxidation level by measuring malondialdehyde formation per mg protein pre-incubated at 50 uM followed by H2O2 addition by UV spectroscopy (reference value: 84.32 +/- 12.04 nmol malondialdehyde formed/mg protein). In kind it is functional, Gallus gallus, Erythrocyte.

Data set [12] is described as follows: Antioxidant activity against H2O2-induced oxidative stress in chicken RBC assessed as superoxide dismutase activity by measuring pyrogallol oxidization per mg protein pre-incubated at 50 uM followed by H2O2 addition by UV spectroscopy (reference value: 11.32 +/- 1.96 pyrogallol oxidized/min/mg of protein). In kind it is functional, Gallus gallus, Erythrocyte.

The nature of data set [13]: Antioxidant activity against H2O2-induced oxidative stress in chicken RBC assessed as lipid peroxidation level by measuring malondialdehyde formation per mg protein pre-incubated at 100 uM followed by H2O2 addition by UV spectroscopy (reference value: 84.32 +/- 12.04 nmol malondialdehyde formed/mg protein). Format: functional, Gallus gallus, Erythrocyte.
Data set [14] is described as follows: Antioxidant activity against H2O2-induced oxidative stress in chicken RBC assessed as catalase activity by measuring H2O2 utilization per mg protein pre-incubated at 100 uM followed by H2O2 addition by UV spectroscopy (reference value: 15.97 +/- 2.12 nmol of H2O2 utilized/min/mg of protein). In kind it is functional, Gallus gallus, Erythrocyte.
A short description of data set [15]: Antioxidant activity against H2O2-induced oxidative stress in chicken RBC assessed as lipid peroxidation level by measuring malondialdehyde formation per mg protein pre-incubated at 25 uM followed by H2O2 addition by UV spectroscopy (reference value: 84.32 +/- 12.04 nmol malondialdehyde formed/mg protein). Format: functional, Gallus gallus, Erythrocyte.
A short description of data set [16]: Antioxidant activity against H2O2-induced oxidative stress in chicken RBC assessed as catalase activity by measuring H2O2 utilization per mg protein pre-incubated at 25 uM followed by H2O2 addition by UV spectroscopy (reference value: 15.97 +/- 2.12 nmol of H2O2 utilized/min/mg of protein). In kind it is functional, Gallus gallus, Erythrocyte.

For the compound `COc1cc2c(c(OC)c1)C1CCC(=O)N1CC2` (stereo not drawn), the Activity in data set [1] was 46.35 nmol/min/mg; in [2], 45.8%; in data set [4], 54.2%; in [5] it was 16.87 nmol/mg protein; in data set [6], 58.28 nmol/min/mg; in data set [7] it was 17.23 µmol/min. Further, the Activity result in data set [8] is “Non-toxic”; in data set [9] it was 29.34 µmol/min; in data set [10] it was 24.35 µmol/min; in data set [11], 19.12 nmol/mg protein; in data set [12], 19.43 µmol/min; in data set [13], 16.14 nmol/mg protein. Also, the Activity in [14] is listed as 70.43 nmol/min/mg protein; in data set [15], 28.38 nmol/mg protein; in data set [16], 38.65 nmol/min/mg. In addition, the viability at 100 µM in data set [3] was 68.3%.

For the compound `COc1cc2c(cc1OC)C1(O)C3C4c5ccccc5C(c5ccccc54)C3C(=O)N1CC2` (stereo not drawn), the Activity in [1] was 55.89 nmol/min/mg; in data set [2], 16.55%; in data set [4], 82.45%; in data set [5], 24.44 nmol/mg protein; in data set [6] it was 65.12 nmol/min/mg; in [7] it was 15.86 µmol/min. The Activity result in [8] was “Non-toxic”; in [9], 27.87 µmol/min; in data set [10] it was 23.58 µmol/min; in [11], 35.6 nmol/mg protein; in data set [12], 19.63 µmol/min; in data set [13] it was 18.1 nmol/mg protein. Moreover, the Activity is 67.91 nmol/min/mg protein in data set [14], 51.48 nmol/mg protein in data set [15] and 46.11 nmol/min/mg in data set [16]. In [3], the viability at 100 µM was determined as 87.3%.

In the case of `COc1ccc2c(c1OC)CCN1C(=O)CCCC21` (stereo not drawn), the Activity in [1] was determined as 25.95 nmol/min/mg; in [2], 9.75%; in data set [4], 73.84%; in data set [5], 48.23 nmol/mg protein; in [6] it was 28.47 nmol/min/mg; in data set [7] it was 11.76 µmol/min. Also, the Activity result in [8] is “Non-toxic”; in data set [9], 12.98 µmol/min; in [10] it was 11.95 µmol/min; in data set [11], 54.23 nmol/mg protein; in [12], 11.48 µmol/min; in data set [13], 49.54 nmol/mg protein. The results for the Activity in [14], in data set [15] and in data set [16] were 31.43 nmol/min/mg protein, 61.45 nmol/mg protein and 17.36 nmol/min/mg, respectively. Also, the viability at 100 µM in data set [3] was 86.6%.

As to `Cc1ccc2c(c1)CCN1C(=O)c3ccccc3C21O` (stereo not drawn), the Activity in [1] worked out at 50.35 nmol/min/mg; in [2], 11.44%; in data set [4], 87.56%; in [5], 26.52 nmol/mg protein; in data set [6], 54.56 nmol/min/mg; in data set [7] it was 11.51 µmol/min. In addition, the Activity result in data set [8] is “Non-toxic”; in data set [9], 18.6 µmol/min; in data set [10], 15.08 µmol/min; in [11], 43.76 nmol/mg protein; in data set [12], 14.56 µmol/min; in data set [13], 16.95 nmol/mg protein. For the same compound, the Activity in [14] turned out to be 65.35 nmol/min/mg protein; in data set [15], 53.66 nmol/mg protein; in data set [16], 31.71 nmol/min/mg. In data set [3], the viability at 100 µM stood at 82.3%.

On to `COc1ccc(OC)c2c1CCN1C(=O)c3ccccc3C21O` (stereo not drawn), for which the Activity in data set [1] turned out to be 31.76 nmol/min/mg; in data set [2], 8.55%; in data set [4] it was 90.45%; in data set [5] it was 14.24 nmol/mg protein; in data set [6] it was 47.53 nmol/min/mg; in data set [7], 16.32 µmol/min. The Activity result in [8] was “Non-toxic”; in data set [9] it was 27.76 µmol/min; in data set [10], 23.76 µmol/min; in [11], 28.21 nmol/mg protein; in [12], 19.24 µmol/min; in [13], 20.14 nmol/mg protein. The Activity in data set [14] came out at 68.46 nmol/min/mg protein; in [15] it was 36.23 nmol/mg protein; in data set [16], 23.65 nmol/min/mg. For the same compound, the viability at 100 µM in [3] was determined as 72%.

As for `COc1cc2c(cc1OC)C1(O)c3ccccc3C(=O)N1CC2` (stereo not drawn), the Activity in data set [1] worked out at 43.65 nmol/min/mg; in [2], 34.44%; in data set [4], 65.56%; in [5], 16.54 nmol/mg protein; in data set [6], 48.43 nmol/min/mg; in [7] it was 17.34 µmol/min. Also, the Activity result in data set [8] is “Non-toxic”; in data set [9], 28.45 µmol/min; in data set [10], 23.98 µmol/min; in data set [11], 29.27 nmol/mg protein; in data set [12] it was 19.35 µmol/min; in data set [13], 18.32 nmol/mg protein. Moreover, the Activity in data set [14] was determined as 64.87 nmol/min/mg protein; in data set [15] it was 38.46 nmol/mg protein; in [16] it was 26.54 nmol/min/mg. In addition, the viability at 100 µM in data set [3] is 79.3%.

Take `COc1ccc2c(c1)CCN1C(=O)c3ccccc3C21O` (stereo not drawn): the Activity in data set [1] was 16.25 nmol/min/mg; in [2] it was 41.96%; in data set [4], 57.29%; in [5] it was 48.12 nmol/mg protein; in [6], 16.46 nmol/min/mg; in data set [7], 12.65 µmol/min. The Activity entry in data set [8] is “Non-toxic”; in [9] it was 11.37 µmol/min; in data set [10] it was 11.48 µmol/min; in data set [11] it was 56.32 nmol/mg protein; in data set [12] it was 11.87 µmol/min; in data set [13] it was 42.14 nmol/mg protein. Besides, the figures for the Activity in data set [14], in [15] and in [16] were 16.37 nmol/min/mg protein, 62.98 nmol/mg protein and 15.31 nmol/min/mg, respectively. Further, the viability at 100 µM in [3] was 53.6%.

As to `COc1ccc2c(c1OC)CCN1C(=O)c3ccccc3C21O` (stereo not drawn), the Activity in [1] amounted to 16.25 nmol/min/mg; in data set [2], 42.97%; in data set [4], 56.64%; in [5], 41.21 nmol/mg protein; in data set [6], 16.46 nmol/min/mg; in data set [7], 13.19 µmol/min. Further, the Activity entry in data set [8] is “Non-toxic”; in data set [9], 18.13 µmol/min; in [10], 15.54 µmol/min; in [11], 46.37 nmol/mg protein; in [12] it was 15.96 µmol/min; in data set [13], 48.32 nmol/mg protein. In addition, the Activity came out at 16.37 nmol/min/mg protein in [14], 53.65 nmol/mg protein in data set [15] and 15.31 nmol/min/mg in data set [16]. In data set [3], the viability at 100 µM came to 65.6%.
